Consider 4 compounds from US20060057228A1, “Weight loss composition” (Pure World Botanicals, Inc., priority 2004, published 2006).

The test deals with undifferentiated 3T3-L1 cell. The experiment in a line: Anti-adipogenesis assay on undifferentiated 3T3-L1 cell. Format: cell-based. The text has this: The major component of weight gain is the increase and accumulation of fat through adipogenesis process. Adipogenesis is characterized by increase of both fat cell number and fat cell size. The weight loss composition of the present invention, banaba extracts, and some active components which were isolated from banaba have shown strong activity through an inhibitory activity on adipocyte differentiation to block fat cell synthesis to achieve the effect on bodyweight control and body fat loss. The following is the list of the results of anti-adipogenesis assay (Table 4).

Setting [1] is: concentration level 0.002% (w/w).
Setting [2] is: concentration level 0.004% (w/w).
Setting [3] is: concentration level 0.05% (w/w).
Setting [4] is: concentration level 0.10% (w/w).

For `COc1c(O)cc2c(=O)oc3c(O)c(O)cc4c(=O)oc1c2c34` [3-O-methylellegic acid], the Percent of inhibitory runs as follows: under setting [1], 97%; under setting [2], 98%.

Take Banasulin: the Percent of inhibitory is, setting by setting: under setting [1], 96%; under setting [2], 79%; under setting [3], 99%.

Turning to `O=C(O[C@@H]1COC(=O)c2cc(O)c(O)c(O)c2-c2c(cc(O)c(O)c2O)C(=O)O[C@H]1[C@@H]1OC(=O)c2cc(O)c(O)c(O)c2-c2c(O)c(O)c(O)c3c2C(=O)O[C@H]1[C@@H]3O)c1cc(O)c(O)c(O)c1` [Casuarinin], the Percent of inhibitory is, setting by setting: under setting [1], 100%; under setting [2], 100%; under setting [3], 100%; under setting [4], 100%.

Regarding Lagerstroemin, the Percent of inhibitory under setting [1] is recorded as 100%, the Percent of inhibitory under setting [2] is on record as 100%, the Percent of inhibitory under setting [3] is 100% and the Percent of inhibitory under setting [4] stood at 100%.
